Test results from patent publication US20220324835A1 (Nurix Therapeutics, Inc., priority 2018, published 2022).

Key:
[1] = tested on: human T-cells with allogenic immature dendritic cells; assay: Allogenic mixed lymphocyte reaction (MLR), T-cell proliferation; format: cell-based; conditions: 120 h, 5 days, baseline T-cells without Cbl-b inhibitor, read-out: Proliferation, fold change over baseline
Method: Cbl-b inhibitor effects on primary human T-cells were also evaluated in the context of an allogenic mixed lymphocyte reaction (MLR). Allogenic immature dendritic cells were generated under the following conditions. Peripheral blood mononuclear cells (PBMC) were obtained either: 1) by using Ficoll-Paque™ (GE Healthcare) for separation of peripheral blood hematopoietic cells from huffy coats of healthy human donors; or 2) directly from LeukoPak donations. […] Monocytes were cultured with 30 ng/mL of recombinant human GM-CSF and 20 ng/mL of recombinant human IL-4 for seven days to generate immature dendritic cells. Monocytes and T-cells were either isolated fresh from peripheral blood or thawed from frozen stocks. Human T-cells were isolated, labeled with CFSE and incubated with inhibitors as described above. […] Proliferation of the T-cells was evaluated by flow cytometry.
Readouts for the allogenic mixed lymphocyte reaction were reported as fold change over baseline. Baseline for this study was the measurement obtained from total human T-cells stimulated with allogenic immature dendritic cells, wherein the T-cells were not incubated with a Cbl-b inhibitor (Table 5). Increases in proliferation greater than 2-fold over baseline were considered a positive response (Table 5).

T-cells = assay: In vivo activity: CD25 expression on CD4+ or CD8+ T-cells of mice stimulated with anti-CD3 antibody; conditions: 2 μg anti-CD3 antibody, 24 hours
In short: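 C57BL/6 or BALB/c mice dosed with inhibitor (IV, IP, SC or PO, e.g. BID or TID), then stimulated with 2 μg anti-CD3 antibody. Plasma IL-2, IFNγ, TNFα at 8 h and CD25 on CD4+/CD8+ T-cells by flow cytometry at 24 h; fold change over vehicle plus anti-CD3, binned A–E.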

T-cell [2] = assay: CD25 cell surface staining on T-cells stimulated with anti-CD3 antibody alone (Biological Example 2); format: cell-based; conditions: primary human total T-cells, baseline = anti-CD3/anti-CD28 stimulated cells without inhibitor, read-out: CD25 staining, Anti-CD3 stimulation, fold change over baseline; for fold induction at 1 µM: 1 μM compound; for fold induction at 8 µM: 8 μM compound
T-cell [3] = assay: IL-2 secretion from T-cells stimulated with anti-CD3 antibody alone (Biological Example 2); format: cell-based; conditions: primary human total T-cells, read-out: IL-2 secretion, Anti-CD3 stimulation, fold change over baseline; for fold induction at 1 µM: 1 μM compound; for fold induction at 8 µM: 8 μM compound

SMILES | fold induction at 3 µM [1] | fold induction at 10 µM [1] | CD4+ T-cell % CD25+ (T-cells; 90 mpk IP BID) | CD8+ T-cell % CD25+ (T-cells; 90 mpk IP BID) | CD4+ T-cell % CD25+ (T-cells; 90 mpk PO BID) | CD8+ T-cell % CD25+ (T-cells; 90 mpk PO BID) | CD4+ T-cell % CD25+ (T-cells; 135 mpk PO BID) | CD8+ T-cell % CD25+ (T-cells; 135 mpk PO BID) | CD4+ T-cell % CD25+ (T-cells; 180 mpk PO BID) | CD8+ T-cell % CD25+ (T-cells; 180 mpk PO BID) | CD4+ T-cell % CD25+ (T-cells; 45 mpk PO BID) | CD8+ T-cell % CD25+ (T-cells; 45 mpk PO BID) | fold induction at 1 µM (T-cell [2]) | fold induction at 8 µM (T-cell [2]) | fold induction at 1 µM (T-cell [3]) | fold induction at 8 µM (T-cell [3])
C[C@H](Cc1nncn1C)c1cccc(NC(=O)c2cccc(C(F)(F)F)n2)c1 [Compound 183a, (R)-N-(3-(1-(4-methyl-4H-1,2,4-triazol-3-yl)propan-2-yl)phenyl)-6-(trifluoromethyl)picolinamide] | < 2 | < 2 | D (D indicates 1.00-1.50) | D (D indicates 1.00-1.50) |  |  |  |  |  |  |  |  |  |  |  | 
Cc1cc(C(=O)Nc2cccc([C@H](C)Cc3nncn3C)c2)nc(C2CC2)n1 [Compound 195, (R)-2-cyclopropyl-6-methyl-N-(3-(1-(4-methyl-4H-1,2,4-triazol-3-yl)propan-2-yl)phenyl)pyrimidine-4-carboxamide] | < 2 | 2.01 to 3 |  |  | D (D indicates 1.00-1.50) | D (D indicates 1.00-1.50) | D (D indicates 1.00-1.50) | D (D indicates 1.00-1.50) | C (C indicates 1.51-2.00) | D (D indicates 1.00-1.50) |  |  |  |  |  | 
C[C@H](Cc1nncn1C)c1cccc(N2Cc3c(cccc3C(F)(F)F)C2=O)c1 [Compound 255a, (R)-2-(3-(1-(4-methyl-4H-1,2,4-triazol-3-yl)propan-2-yl)phenyl)-4-(trifluoromethyl)isoindolin-1-one] | < 2 | < 2 | B (B indicates 2.01-2.50) | D (D indicates 1.00-1.50) |  |  | D (D indicates 1.00-1.50) | E (E indicates <1.00) |  |  |  |  |  |  |  | 
Cc1cc(C(=O)Nc2cccc(C3(Cc4nncn4C)COC3)c2)nc(C2CC2)n1 [Compound 336, 2-cyclopropyl-6-methyl-N-(3-(3-((4-methyl-4H-1,2,4-triazol-3-yl)methyl)oxetan-3-yl)phenyl)pyrimidine-4-carboxamide] | < 2 | > 3.01 |  |  | D (D indicates 1.00-1.50) | D (D indicates 1.00-1.50) | C (C indicates 1.51-2.00) | D (D indicates 1.00-1.50) | C (C indicates 1.51-2.00) | D (D indicates 1.00-1.50) | D (D indicates 1.00-1.50) | D (D indicates 1.00-1.50) |  |  |  | 
C[C@@H](c1cc2c(c(C(F)(F)F)c1)CN(c1cccc(C3(Cc4nncn4C)COC3)c1)C2=O)N1CC[C@H](F)C1 [Compound 412, 6-((S)-1-((S)-3-fluoropyrrolidin-1-yl)ethyl)-2-(3-(3-((4-methyl-4H-1,2,4-triazol-3-yl)methyl)oxetan-3-yl)phenyl)-4-(trifluoromethyl)isoindolin-1-one] | > 3.01 | > 3.01 |  |  | D (D indicates 1.00-1.50) | D (D indicates 1.00-1.50) | C (C indicates 1.51-2.00) | D (D indicates 1.00-1.50) | B (B indicates 2.01-2.50) | D (D indicates 1.00-1.50) |  |  | > 1 | > 1 | > 0.201 | > 0.201
C[C@H](c1cc2c(c(C(F)(F)F)c1)CN(c1cccc(C3(Cc4nncn4C)COC3)c1)C2=O)N1CC[C@H](F)C1 [Compound 413, 6-((R)-1-((S)-3-fluoropyrrolidin-1-yl)ethyl)-2-(3-(3-((4-methyl-4H-1,2,4-triazol-3-yl)methyl)oxetan-3-yl)phenyl)-4-(trifluoromethyl)isoindolin-1-one] | 2.01 to 3 | > 3.01 |  |  | D (D indicates 1.00-1.50) | D (D indicates 1.00-1.50) | D (D indicates 1.00-1.50) | D (D indicates 1.00-1.50) | D (D indicates 1.00-1.50) | D (D indicates 1.00-1.50) |  |  | > 1 | > 1 | > 0.201 | > 0.201
Cn1cnnc1CC1(c2cccc(N3Cc4c(cc(CN5CC(F)C5)cc4C(F)(F)F)C3=O)c2)COC1 [Compound 415, 6-((3-fluoroazetidin-1-yl)methyl)-2-(3-(3-((4-methyl-4H-1,2,4-triazol-3-yl)methyl)oxetan-3-yl)phenyl)-4-(trifluoromethyl)isoindolin-1-one] | 2.01 to 3 | > 3.01 |  |  | D (D indicates 1.00-1.50) | D (D indicates 1.00-1.50) | D (D indicates 1.00-1.50) | E (E indicates <1.00) | D (D indicates 1.00-1.50) | E (E indicates <1.00) |  |  | > 1 | > 1 | 0.151 to 0.2 | > 0.201
Cn1cnnc1C(F)(F)[C@](C)(F)c1cccc(N2Cc3c(cc(C(=O)N4CC[C@H](O)C4)cc3C(F)(F)F)C2=O)c1 [Compound 438, 6-((S)-3-hydroxypyrrolidine-1-carbonyl)-2-(3-((R)-1,1,2-trifluoro-1-(4-methyl-4H-1,2,4-triazol-3-yl)propan-2-yl)phenyl)-4-(trifluoromethyl)isoindolin-1-one] | < 2 | < 2 |  |  |  |  |  |  |  |  |  |  | 0.801 to 1 | > 1 | 0.101 to 0.15 | > 0.201
Cn1cnnc1C(F)(F)[C@](C)(F)c1cccc(N2Cc3c(cc(N4CCNCC4)cc3C(F)(F)F)C2=O)c1 [Compound 442, (R)-6-(Piperazin-1-yl)-2-(3-(1,1,2-trifluoro-1-(4-methyl-4H-1,2,4-triazol-3-yl)propan-2-yl)phenyl)-4-(trifluoromethyl)isoindolin-1-one] | < 2 | < 2 |  |  |  |  |  |  |  |  |  |  | > 1 | 0.801 to 1 | > 0.201 | 0.051 to 0.1
Cn1cnnc1C(F)(F)[C@](C)(F)c1cccc(N2Cc3c(cc(CN4CC[C@@H](F)C4)cc3C(F)(F)F)C2=O)c1 [Compound 450] | < 2 | 2.01 to 3 |  |  |  |  |  |  |  |  |  |  | > 1 | > 1 | > 0.201 | > 0.201
COC1CN(Cc2cc3c(c(C(F)(F)F)c2)CN(c2cccc([C@@](C)(F)C(F)(F)c4nncn4C)c2)C3=O)C1 [Compound 452, (R)-6-((3-methoxyazetidin-1-yl)methyl)-2-(3-(1,1,2-trifluoro-1-(4-methyl-4H-1,2,4-triazol-3-yl)propan-2-yl)phenyl)-4-(trifluoromethyl)isoindolin-1-one] | < 2 | < 2 |  |  |  |  |  |  |  |  |  |  | > 1 | > 1 | 0.151 to 0.2 | > 0.201
Cn1cnnc1C(F)(F)[C@](C)(F)c1cccc(N2Cc3c(cc(CN4CC[C@@H](C#N)C4)cc3C(F)(F)F)C2=O)c1 [Compound 455, (R)-1-((3-oxo-2-(3-((R)-1,1,2-trifluoro-1-(4-methyl-4H-1,2,4-triazol-3-yl)propan-2-yl)phenyl)-7-(trifluoromethyl)isoindolin-5-yl)methyl)pyrrolidine-3-carbonitrile] | < 2 | < 2 |  |  |  |  |  |  |  |  |  |  | 0.801 to 1 | > 1 | 0.151 to 0.2 | > 0.201
C[C@H](Cc1nncn1C)c1cccc(NC(=O)c2cc3cc(N4CCNCC4)ccc3cn2)c1 [Compound 472, N-{3-[(2R)-1-(4-methyl-4H-1,2,4-triazol-3-yl)propan-2-yl]phenyl}-6-(piperazin-1-yl)isoquinoline-3-carboxamide] | < 2 | < 2 |  |  |  |  |  |  |  |  |  |  | 0.801 to 1 | 0.801 to 1 | 0.101 to 0.15 | 0.101 to 0.15
